Measured values reported in article PMC9303580, “The T1‐tetramerisation domain of Kv1.2 rescues expression and preserves function of a truncated NaChBac sodium channel” (Febs Letters, 2022).

How the values were obtained:
T1-chimera = tested on: T1, T1-chimera; test: […]+ flux assay in proteoliposomes; format: biochemical, Halalkalibacterium halodurans; settings: estimated; block at 45 min, POPE:POPG 3:1 liposomes, 450 mM NaCl inside, pH 7.5; pore blocker
T1 construct: gene NaChBac; single-chain fusion: N-terminal His6 tag, human Kv1.2 T1 domain (1-145, MTV...NEF), then NaChBac TM domain printed as 9-239 (KQN...ELT; forward primer encodes QKQN, K8 is in QKQ, so start is probably Q7), CTD removed; E. coli C41(DE3); with Potassium voltage-gated channel subfamily A member 2

full-length NaChBac = biological target: T2, full-length NaChBac (Halalkalibacterium halodurans, UniProt Q9KCR8); test: […]+ flux assay in proteoliposomes; format: biochemical
T2 construct: gene BH1501; full-length, hexa-histidine-tagged (pET-15b), expressed in E. coli C41(DE3), purified in Cymal-5, reconstituted in POPE:POPG liposomes
T2 sequence (Q9KCR8 1-274): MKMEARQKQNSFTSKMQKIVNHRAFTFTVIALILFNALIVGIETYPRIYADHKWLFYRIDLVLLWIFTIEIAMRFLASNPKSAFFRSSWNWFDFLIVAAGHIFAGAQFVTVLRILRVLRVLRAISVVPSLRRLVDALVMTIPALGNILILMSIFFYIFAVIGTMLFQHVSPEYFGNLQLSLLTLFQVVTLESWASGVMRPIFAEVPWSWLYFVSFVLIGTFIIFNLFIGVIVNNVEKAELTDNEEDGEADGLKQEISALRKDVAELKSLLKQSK

- IC50 (T1-chimera): 2 µM
- IC50 (full-length NaChBac): 2 µM
Compound: COCC(=O)O[C@]1(CCN(C)CCCc2nc3ccccc3[nH]2)CCc2cc(F)ccc2[C@@H]1C(C)C [mibefradil]
